Reference: US20070027175A1, “Antineoplastic activities of ellipticine and its derivatives” (priority 2005, published 2007)

Tested on: myeloma cell lines engrafted in SCID mice
Type: in vivo
Conditions: 25 and 50 mg/kg/day; Alzet osmotic pumps; 28 days; contemplated
From the text: The present invention also examines novel therapeutic approaches for myeloma using experimental animal models. The anti-myeloma efficacy of 9-(Dimethylaminoethoxy)-ellipticine is examined using a panel of myeloma cell lines engrafted in severe combined immunodeficient (SCID) mice. The 3 cell lines are infected with a lentivirus-containing luciferase. Luciferase-expressing myeloma cells can be traced in live animals using the Xenogen IVIS 200 luminescence imaging system. Six to 8 weeks old SCID mice are subcutaneously injected with 10^7 myeloma cells. Tumor growth in live animals is monitored by measuring circulating level of monoclonal human immunoglobulins (hIg) in mice sera using ELISA (Yaccoby et al., 1998; Yang et al., 2002) and through imaging of tumor cells luminescence intensity. The tumor growth is detected within one week by ELISA and within 1-3 weeks by imaging.
Upon establishment of myeloma growth as determined by both methods, mice are randomly divided into 3 groups; one control and 2 treated with different doses of 9-(Dimethylaminoethoxy)-ellipticine (8 mice/group for each cell line). Mice are implanted with Alzet osmotic pumps delivering 0.25 μl of drug solution per hour for 28 days. The daily doses are 25 and 50 mg/kg/day. Control animals have pumps loaded with buffer (PBS) only. At the experiments' end, mice are subjected to imaging analysis, bled and sacrificed. […]

With Cc1c2ccncc2c(C)c2c1[nH]c1ccc(OCCN(C)C)cc12 [NSC 338258, ellipticine, 9-dimethyl amino-ethoxy-] as the compound, how does the “inhibition of myeloma cell growth in vivo” value read?
The value was “effectively inhibits myeloma cell growth in vivo”.
